Results reported in publication PMC4937655 (Journal of Drug Assessment, 2013).
Entries after “also recorded” stand apart in the source; their conditions may differ. Read-outs that look alike come from different tables or passages of the source.

Legend:
[1] = parameters: method as in PMID 20091161; conditions: single oral dose of ticagrelor 100 mg; healthy volunteers n = 9; cited from earlier work
[2] = parameters: method as in PMID 20551239, PMID 20091161, PMID 20642549, PMID 16476694, PMID 17980251; conditions: cited from earlier work
platelet aggregation = test system: platelet aggregation; parameters: method as in AstraZeneca, data on file; conditions: ref AstraZeneca, data on file; cited from earlier work
[3] = Ticagrelor-diltiazem interaction study: pharmacokinetic parameters of ticagrelor and AR-C124910XX; conditions: for Cmax: po
Procedure: (§1) Both studies were single-center, randomized, open-label studies with a two-period, in-patient, crossover design. For both studies, a low non-loading dose of ticagrelor (i.e., a single oral dose of 90 mg) was selected, so if an interaction occurred between ticagrelor and the CYP3A4 inhibitor, then the increase in ticagrelor plasma concentrations would minimize any safety issues. […] The approved dosing regimen of ticagrelor is 180 mg loading dose followed by 90 mg twice daily thereafter3,4.
(§2) Figure 1 depicts the overall study design for both studies. At the start of each study, volunteers were randomized to one of two treatments (A or B). After the washout period, volunteers received the alternate dosing regimen. On the scheduled day, ticagrelor was co-administered with the CYP3A4 inhibitor in the morning after fasting for ≥10 hours followed by a further fast for ≥4 hours. Water was permitted ad libitum throughout each period except for 2 hours before and after ticagrelor administration.
(§3) The limits of quantification (LOQ) for ticagrelor and AR-C124910XX were […], respectively28.
(§4) Plasma concentration–time data were used to calculate Cmax, time to maximum concentration (tmax), AUC, and the terminal elimination half-life (t½). The latter was calculated as 0.693/λz, where λz is the terminal phase elimination rate constant, derived by least-squares regression analysis of the plasma concentration–time data obtained over the terminal log-linear phase. AUC was calculated using the linear trapezoidal method and extrapolated to infinity. AR-C124910XX:ticagrelor ratios for Cmax and AUC were calculated.
(§5) Statistical analyses were conducted using SAS version 8 (SAS Institute, Cary, North Carolina, USA). Pharmacokinetic parameters were summarized by descriptive statistics. AUC and Cmax values for ticagrelor and AR-C124910XX were analyzed, following log-transformation, by analysis of variance with terms for treatment, period, and sequence, and the volunteer within sequence was included as a random effect. After exponentiation, geometric least square mean point estimates and 90% CIs for the ratio ticagrelor + CYP3A4 inhibitor/ticagrelor alone were calculated. The pre-specified limits for the 90% CI values indicating no interaction between ticagrelor and either CYP3A4 inhibitor were 0.7–1.43.

[4] = Ticagrelor-ketoconazole interaction study: pharmacokinetic parameters of ticagrelor and AR-C124910XX; conditions: for Cmax: po
Procedure: as §1, §2, §3, §4, §5

[5] = Safety and tolerability, diltiazem study; format: in vivo, human
Procedure: (§6) Safety and tolerability of ticagrelor alone and in the presence of diltiazem or ketoconazole were evaluated by assessment of adverse events (AEs), vital signs, electrocardiographic (ECG), physical examination, and laboratory parameters (clinical chemistry, hematology, and urinalysis) throughout the studies.

[6] = Effect of ticagrelor on diltiazem pharmacokinetic parameters; format: in vivo, human; conditions: for Tmax: human, plasma, read-out: Median tmax (range); for Effect of ticagrelor on pharmacokinetic parameters: in words
[7] = parameters: method as in PMID 19717846; conditions: ticagrelor + aspirin compared with clopidogrel + aspirin; patients with ACS; cited from earlier work
[8] = Safety and tolerability, ketoconazole study; format: in vivo, human
Procedure: as §6

[9] = cited from earlier work
[10] = cited from earlier work; remark: listed apart in the source
P-glycoprotein = conditions: ref 18 (AstraZeneca, data on file); cited from earlier work
[11] = parameters: method as in PMID 16476694; conditions: 28 days, cited from earlier work
CYP3A [12] = test system: CYP3A; parameters: method as in PMID 21177984; conditions: cited from earlier work; for Inhibition of CYP3A activity in vitro: in words
CYP3A [13] = conditions: cited from earlier work
[14] = Effect of ticagrelor on ketoconazole steady-state plasma concentrations; format: in vivo, human; conditions: for Plasma concentration, mean (% CV; range): ketoconazole 200 mg twice daily
Procedure: as §1, §3, §4

[15] = single dose 900 mg, healthy volunteers n = 6
[16] = diltiazem co-administration vs ticagrelor alone
[17] = ticagrelor + diltiazem/ticagrelor alone
[18] = ketoconazole co-administration vs ticagrelor alone
[19] = ticagrelor + ketoconazole/ticagrelor alone

For `CCCSc1nc(N[C@@H]2C[C@H]2c2ccc(F)c(F)c2)c2nnn([C@@H]3C[C@H](O)[C@@H](O)[C@H]3O)c2n1` [AR-C124910XX], the “AUC, mean ± standard deviation” value [1] is given as 1460 ± 408 ng·h/mL, the “Metabolite level as share of the levels of ticagrelor” value [2] is given as 30–40% and the “Potency in inhibiting platelet aggregation relative to ticagrelor” value (platelet aggregation) is given as “approximately equipotent”. The “Metabolite:parent AUC ratio” value ([3]; human, in vivo) was 0.4 (39), the “Metabolite:parent Cmax ratio” value ([3]; human, in vivo) was 0.3 (36) and the AUC ([3]; human, in vivo, 90 mg) was 1630 (29) ng·h/mL. The Tmax ([3]; human, in vivo, 90 mg) was 3.0 (2.0–4.0) h, the t½ ([3]; human, in vivo, 90 mg) was 8.4 (1.3) h and the Cmax ([3]; human, in vivo) was 173 (38) ng/mL. The “Metabolite:parent AUC ratio” value ([4]; human, in vivo) was 0.49 (24), the “Metabolite:parent Cmax ratio” value ([4]; human, in vivo) was 0.32 (22) and the AUC ([4]; human, in vivo, 90 mg) was 1769 (28) ng·h/mL. The Tmax ([4]; human, in vivo, 90 mg) was 2.0 (2.0–4.0) h, the t½ ([4]; human, in vivo, 90 mg) was 8.0 (6.3–16.7) h and the Cmax ([4]; human, in vivo) was 207 (29) ng/mL.
In the case of `COc1ccc([C@@H]2Sc3ccccc3N(CCN(C)C)C(=O)[C@@H]2OC(C)=O)cc1` [diltiazem, Diltiazem], the “Abnormal ECG evaluations of first-degree atria-ventricular block” value ([5]; in vivo) is reported as “two volunteers”, the “Systolic and diastolic blood pressure compared to baseline” value ([5]; in vivo) is reported as “marginal decrease” and the Tmax ([6]; diltiazem + ticagrelor) is reported as 10 h. The Tmax ([6]; diltiazem alone) was 8 h, the “Effect of ticagrelor on pharmacokinetic parameters” value [6] was “no effect; also recorded: did not affect” and the “Effect of ticagrelor on pharmacokinetic parameters” value ([6]; listed as Diltiazem) was “not significantly affected”.
In the case of `CCCSc1nc(N[C@@H]2C[C@H]2c2ccc(F)c(F)c2)c2nnn([C@@H]3C[C@H](OCCO)[C@@H](O)[C@H]3O)c2n1` [Ticagrelor], the “AUC, mean ± standard deviation” value [1] is listed as 3683 ± 753 ng·h/mL, the “Rate of myocardial infarction/stroke/death from vascular causes” value [7] is listed as “significantly reduced” and the AEs ([8]; in vivo) is listed as “five AEs”. For the same compound, the “Deaths or serious AEs” value ([8]; ketoconazole study) was “No deaths or serious AEs”, the “Maximum tolerated single dose” value ([9]; healthy volunteers) was 900 mg and the “AUC, mean [% CV]” value [9, 15] was 39,153 [38] ng·h/mL. The “Bleeding-related AEs” value [9, 15] was “no bleeding-related AEs”, the “Cmax, mean [% CV]” value [9, 15] was 5153 [42] ng/mL and the “Total bleeding events: number of events (Kaplan–Meier event rates)” value (“Total bleeding events: number of events” for short) ([10]; 90 mg twice daily, through week 4) was 32 (9.8). The “Total bleeding events: number of events” value ([10]; 90 mg twice daily, through week 12) was 34 (10.9), the “Mean AUC ± SD” value ([10]; 90 mg twice daily, week 4) was 4762 ± 2443 ng·h/mL and the “Total bleeding events: number of events” value ([10]; 180 mg twice daily, through week 4) was 25 (8.0). For the same compound, the “Total bleeding events: number of events” value ([10]; 180 mg twice daily, through week 12) was 33 (11.4), the “Mean AUC ± SD” value ([10]; 180 mg twice daily, week 4) was 13,198 ± 4982 ng·h/mL and the “Inhibition of platelet aggregation (IPA)” value ([10]; 180 mg vs 90 mg twice daily) was “dose-dependent increase”. The “Increase in ticagrelor exposure” value ([10]; 180 mg vs 90 mg twice daily, week 4) was 277%, the P-glycoprotein substrate status (P-glycoprotein) was “substrate” and the “Mean AUC” value ([11]; 100 mg ticagrelor twice daily, CV 45%) was 5337 ng·h/mL. For the same compound, the “Mean AUC” value ([11]; 200 mg ticagrelor twice daily, CV 39%) was 15,104 ng·h/mL, the Increase in exposure ([11]; 200 mg vs 100 mg twice daily) was 283% and the “Increase in AUC” value [3, 16] was 174%. The “Increase in Cmax” value [3, 16] was 69%, the Increase in half-life [3, 16] was 96% and the AUC ([3]; human, plasma, oral, 90 mg) was 3700 ng·h/mL. The Tmax ([3]; human, plasma, oral, 90 mg) was 2 h, the half-life ([3]; human, plasma, oral, 90 mg) was 8.3 h and the Cmax ([3]; human, plasma, 90 mg) was 519 ng/mL. For the same compound, the “Effect of diltiazem on median tmax” value ([3]; in words) was “unaffected”, the “AUC GLS mean ratio: point estimate (90% CI)” value [3, 17] was 2.74 (2.40–3.13) and the “Cmax GLS mean ratio: point estimate (90% CI)” value [3, 17] was 1.69 (1.47–1.95). The “Deaths or serious AEs” value ([5]; diltiazem study) was “No deaths or serious AEs”, the Bleeding events ([5]; in vivo) was “No such events” and the AEs reported ([5]; in vivo, po) was “No AEs”. The “Increase in AUC” value ([4]; co-administration of ketoconazole) was no less than 5 fold, the AUC ([4]; human, plasma, oral, 90 mg) was 3640 ng·h/mL and the Tmax ([4]; human, plasma, oral, 90 mg) was 2 h. The half-life ([4]; human, plasma, oral, 90 mg) was 7.1 h, the Cmax ([4]; human, plasma, 90 mg) was 654 ng/mL and the “Increase in AUC” value [4, 18] was 632%. The “Increase in Cmax” value [4, 18] was 135%, the “Half-life increased to (relative to ticagrelor alone)” value ([4]; presence of ketoconazole) was “approximately 362%” and the “AUC GLS mean ratio: point estimate (90% CI)” value [4, 19] was 7.32 (6.43–8.34). For the same compound, the “Cmax GLS mean ratio: point estimate (90% CI)” value [4, 19] was 2.35 (2.13–2.60), the “Metabolism by CYP3A” value (CYP3A [12]; human liver microsomes / in vitro) was “principally metabolized by CYP3A; also recorded: substrate” and the “Inhibition of CYP3A activity in vitro” value (CYP3A [12]) was “weak-to-moderate inhibitor”. The “Inhibition of CYP3A activity in vitro” value (CYP3A [12]; listed as ticagrelor) was “weak inhibitor”.
In the case of `CC(=O)N1CCN(c2ccc(OCC3COC(Cn4ccnc4)(c4ccc(Cl)cc4Cl)O3)cc2)CC1` (stereo not drawn) [ketoconazole], the CYP3A substrate status (CYP3A [13]) is given as “substrates for CYP3A”, the “Classification as CYP3A inhibitor” value (CYP3A [13]) is given as “strong CYP3A inhibitor” and the “Effect of ticagrelor on steady-state plasma concentrations / pharmacokinetic parameters” value ([14]; in words) is given as “not significantly affected; also recorded: did not affect”. For the same compound, the “Plasma concentration, mean (% CV; range)” value ([14]; 12 hours post-dosing with ticagrelor on day 4) was 1271 (84;334–4150) ng/mL and the “Plasma concentration, mean (% CV; range)” value ([14]; pre-dosing on day 4, absence of ticagrelor) was 1410 (73; 396–3540) ng/mL.
